Laboratory results as given in patent publication US8252822B2, “Heterocyclic compounds and uses as anticancer agents” (Acea Biosciences, Inc., priority 2007, dated 2012).
pIC50: −log10 of the molar value. Where two headings read alike, the source gives them in different places.

Columns and labels:
MCF7 = assay: RT-CES cell proliferation inhibition, MCF7; assay type: cell-based; details: Homo sapiens
From the text: (§1) The biological activity of compounds disclosed herein was monitored and profiled using the Real-Time Cell Electronic Sensing (RT-CES®) system from ACEA Biosciences, Inc. The RT-CES system utilizes cell-substrate impedance technology to monitor cellular behavior inside tissue culture wells in a microtiter plate format. The technology features in the integration of molecular and cell biology with microelectronics and is based on the electronic detection of biological assay process. The details of this cell electronic sensing technology and associated devices, systems and methods of use as described in U.S. provisional application No. 60/379,749, filed on Jul. […]
(§2) For measurement of cell-substrate or cell-electrode impedance using RT-CES technology, microelectrodes having appropriate geometries are fabricated onto the bottom surfaces of microtiter plate or similar device, facing into the wells. […] When there are changes to the biological status of the cells analogue electronic readout signals are measured automatically and in real time, and are converted to digital signals for processing and for analysis. In a RT-CES system, a cell index (arbitrary representation of change in impedance) is automatically derived and provided based on measured electrode impedance values. […]
(§3) To quantify cell status based on the measured cell-electrode impedance, a parameter termed Cell Index is derived. […]

[1] = tested on: a number of cancer cell lines (MCF7adr, PC3, KB, KB200, Bcap37); assay: RT-CES time-dependent cell index, a number of cancer cell lines (FIG. 10, 11); assay type: cell-based, human; details: various concentrations
From the text: as §1, §2, §3

B16-luc = assay: RT-CES cell proliferation inhibition, B16-luc; assay type: cell-based, Rat; details: Mus musculus
From the text: as §1, §2, §3

Hela = assay: RT-CES cell proliferation inhibition, Hela; assay type: cell-based; details: Homo sapiens
From the text: as §1, §2, §3

HT29 = assay: RT-CES cell proliferation inhibition, HT29; assay type: cell-based; details: Homo sapiens, HT-29
From the text: as §1, §2, §3

HT1080 = assay: RT-CES cell proliferation inhibition, HT1080; assay type: cell-based; details: Homo sapiens, HT-1080
From the text: as §1, §2, §3

ST30 = assay: RT-CES cell proliferation inhibition, ST30; assay type: cell-based; details: Homo sapiens
From the text: as §1, §2, §3

H460 = assay: RT-CES cell proliferation inhibition, H460; assay type: cell-based; details: Homo sapiens, NCI-H460
From the text: as §1, §2, §3

SH-SY5Y = assay: RT-CES cell proliferation inhibition, SH-SY5Y; assay type: cell-based; details: Homo sapiens
From the text: as §1, §2, §3

A549 cells = assay: RT-CES cell proliferation inhibition, A549; assay type: cell-based, Human; details: for pIC50: Homo sapiens
From the text: The biological activity of compounds disclosed herein was monitored and profiled using the Real-Time Cell Electronic Sensing (RT-CES®) system from ACEA Biosciences, Inc. The RT-CES system utilizes cell-substrate impedance technology to monitor cellular behavior inside tissue culture wells in a microtiter plate format. The technology features in the integration of molecular and cell biology with microelectronics and is based on the electronic detection of biological assay process. The details of this cell electronic sensing technology and associated devices, systems and methods of use as described in U.S. provisional application No. 60/379,749, filed on Jul. 20, 2002; U.S. provisional application No. 60/435,400, filed on Dec. 20, 2002; U.S. Provisional application 60/469,572, filed on May 9, 2003, PCT application number PCT/US03/22557, filed on Jul. 18, 2003; PCT application number PCT/US03/22537, filed on Jul. 18, 2003; U.S. patent application Ser. No. 10/705,447, filed on Nov. 10, 2003; U.S. patent application Ser. No. 10/705,615, filed on Nov. 10, 2003, each of which is incorporated by reference. Additional details of RT-CES technology is further disclosed in U.S. provisional application No. 60/519,567, filed on Nov. 12, 2003, and U.S. provisional application No. 60/542,927, filed on Feb. 9, 2004.
For measurement of cell-substrate or cell-electrode impedance using RT-CES technology, microelectrodes having appropriate geometries are fabricated onto the bottom surfaces of microtiter plate or similar device, facing into the wells. Cells are introduced into the wells of the devices, and make contact to and attach to the electrode surfaces. The presence, absence or change of properties of cells affects the electronic and ionic passage on the electrode sensor surfaces. Measuring the impedance between or among electrodes provides important information about biological status of cells present on the sensors. When there are changes to the biological status of the cells analogue electronic readout signals are measured automatically and in real time, and are converted to digital signals for processing and for analysis. In a RT-CES system, a cell index (arbitrary representation of change in impedance) is automatically derived and provided based on measured electrode impedance values. The cell index obtained for a given well reflects: 1) how many cells are attached to the electrode surfaces in this well; 2) how well cells are attached to the electrode surfaces in this well. Thus, the more the cells of same type in similar physiological conditions attach the electrode surfaces, the larger the cell index. And, the better the cells attach to the electrode surfaces (e.g., the cells spread-out more to have larger contact areas, or the cells attach tighter to electrode surfaces), the larger the cell index.
The RT-CES system comprises three components, an electronic sensor analyzer, a device station and 16× or 96× microtiter devices. Microelectrode sensor array was fabricated on glass slides with lithographical microfabrication methods and the electrode-containing slides are assembled to plastic trays to form electrode-containing wells. The device station receives the 16× or 96× microtiter plate devices and is capable of electronically switching any one of the wells to the sensor analyzer for impedance measurement. In operation, the devices with cells cultured in the wells are placed into a device station that is located inside an incubator. Electrical cables connect the device station to the sensor analyzer. Under the RT-CES software control, the sensor analyzer can automatically select wells to be measured and continuously conduct impedance measurements. The impedance data from the analyzer is transferred to a computer, analyzed and processed by the integrated software.
as §3

MCF7adr = assay: RT-CES cell proliferation inhibition, MCF7adr; assay type: cell-based; details: Homo sapiens, NCI/ADR-RES
From the text: as §1, §2, §3

SKOV3 = assay: RT-CES cell proliferation inhibition, SKOV3; assay type: cell-based; details: Homo sapiens, SK-OV-3
From the text: as §1, §2, §3

Br.CCOc1ccc(Nc2nc(-c3c(C)nc4sccn34)cs2)cc1 [Compound 27, 2-(4-ethoxyphenyl)amino-4-(6-methylimidazo[2,1-b]thiazol-5-yl)thiazole]
pIC50 (MCF7; MCF7, 24 hrs, read-out: IC50 (24 hr)): < 6.70 | pIC50 (MCF7; MCF7, 48 hrs, read-out: IC50 (48 hr)): < 6.70 | inhibitory effect on the proliferation of a number of cancer cell lines [1]: exhibited inhibitory effect on the proliferation of a number of cancer cell lines | pIC50 (B16-luc; 24 hrs, read-out: IC50 (24 hr)): 6.15 | pIC50 (B16-luc; 48 hrs, read-out: IC50 (48 hr)): 6.19 | pIC50 (Hela; 24 hrs, read-out: IC50 (24 hr)): 8.23 | pIC50 (Hela; 48 hrs, read-out: IC50 (48 hr)): 8.16 | pIC50 (HT29; HT29, 24 hrs, read-out: IC50 (24 hr)): 7.27 | pIC50 (HT29; HT29, 48 hrs, read-out: IC50 (48 hr)): 7.23 | pIC50 (HT1080; HT1080, 24 hrs, read-out: IC50 (24 hr)): 8.62 | pIC50 (HT1080; HT1080, 48 hrs, read-out: IC50 (48 hr)): 8.57 | pIC50 (ST30; ST30, 24 hrs, read-out: IC50 (24 hr)): 7.41 | pIC50 (ST30; ST30, 48 hrs, read-out: IC50 (48 hr)): 7.37 | pIC50 (H460; H460, 24 hrs after compound treatment, read-out: IC50 (24 hr)): 7.91 | pIC50 (H460; H460, 48 hrs after compound treatment, read-out: IC50 (48 hr)): 7.80 | pIC50 (SH-SY5Y; 24 hrs, read-out: IC50 (24 hr)): 7.87 | pIC50 (SH-SY5Y; 48 hrs, read-out: IC50 (48 hr)): 8.17 | concentration at or above which cell indices first decreased with time and then increased (A549 cells; A549, complex kinetic responses): ≥ 62.5 nM | pIC50 (A549 cells; A549, 24 hours after compound treatment, normalized Cell Index, read-out: IC50 (24 hr)): 7.24 | pIC50 (A549 cells; A549, 48 hrs, read-out: IC50 (48 hr)): 7.54 | inhibitory ability against the proliferation of A549 cells (A549 cells; various concentrations studied, time-dependent cell index): exhibited inhibitory ability against the proliferation of A549 cells | pIC50 (MCF7adr; 24 hrs, read-out: IC50 (24 hr)): 7.91 | pIC50 (MCF7adr; 48 hrs, read-out: IC50 (48 hr)): 7.90 | pIC50 (SKOV3; SKOV3, 24 hrs, read-out: IC50 (24 hr)): 7.70 | pIC50 (SKOV3; SKOV3, 48 hrs, read-out: IC50 (48 hr)): 7.94
